Source: patent publication US3989845A, “Anesthetic chlorocyclopropanes” (priority 1974, dated 1976)

Tested on: Mice
Test: Inhalation anesthesia test in mice, 10 minutes in a rotating drum (pinch, corneal and righting reflex): AC50, LC50 and anesthetic index
Type: in vivo
Conditions: for AI (anesthetic index, LC50/AC50): calculated from LC50 and AC50, 10 min; for AC50 (minimum concentration required to anesthetize 50% of the mice) / LC50 (minimum concentration required to kill 50% of the mice): inhalation, 10 minutes in rotating drum, at least four graded doses, where two figures are given, the actual value lies between them
Description: Mice were exposed to the anesthetic for a period of 10 minutes in a rotating drum. Observations were then made of the pinch reflex, the corneal reflex and the return of the righting reflex. At least four graded doses were employed to determine the minimum concentration required to anesthetize 50% of the mice used (AC50) and the minimum concentration required to kill 50% of the mice (LC50). The anesthetic index (AI) was then calculated from these minimum concentrations.

Row | Compound | AI (anesthetic index, LC50/AC50) | AC50 (minimum concentration required to anesthetize 50% of the mice) | LC50 (minimum concentration required to kill 50% of the mice)
1 | CC1(F)C(F)(F)C1(Cl)Cl (stereo not drawn) [Example 8, 1,1-diCl-2-CH3-triF-] | 4-6 | < 1 % volume | 4-6 % volume
2 | CC1(Cl)CC1(F)Cl (stereo not drawn) [Example 9, 1,2-Dichloro-1-fluoro-2-methylcyclopropane] | > 2 | < 1 % volume | 2-4 % volume
3 | FC1(F)C(F)(Cl)C1(Cl)Cl (stereo not drawn) [Example 10, 1,1,2-triCl-triF-] | > 3 | 1.5 % volume | 2-10 % volume
4 | FC(F)(F)C1(F)C(F)(F)C1(Cl)Cl (stereo not drawn) [Example 11, 1,1-diCl-2-CF3-triF-] | ~ 2 | 4 % volume | > 10 % volume
5 | FC1(F)C(F)(Cl)C1(F)Cl (stereo not drawn) [Example 12, 1,2-Dichlorotetrafluorocyclopropane] | ~ 2 | 6-10 % volume | < 20 % volume
6 | FC1(F)C(Cl)(Cl)C1(Cl)Cl [Example 13, 1,1,2,2-tetraCl-diF-] | ~ 4 | 0.25 % volume | 1 % volume
7 | FC1C(F)(F)C1(Cl)Cl (stereo not drawn) [Example 14, 1,1-diCl-2,3,3-triF-] | 2-3 | < 2 % volume | 4-6 % volume
